Literature values, collected in patent US20220160728A1, “GENE THERAPY METHODS” (Homology Medicines, Inc., priority 2020, published 2022).

Settings: corticosteroid equivalency conversion values (prednisolone equivalents)

| SMILES | Equivalent dose [mg] |
| --- | --- |
| C[C@]12CCC(=O)C=C1CC[C@@H]1[C@@H]2[C@@H](O)C[C@@]2(C)[C@H]1CC[C@]2(O)C(=O)CO [Hydrocortisone (cortisol), Hydrocortisone] | 20 |
| C[C@]12C=CC(=O)C=C1CC[C@@H]1[C@@H]2[C@@H](O)C[C@@]2(C)[C@H]1CC[C@]2(O)C(=O)CO [Prednisolone] | 5 |
| CC(=O)OCC(=O)[C@@]1(O)CC[C@H]2[C@@H]3CCC4=CC(=O)CC[C@]4(C)[C@H]3C(=O)C[C@@]21C [Cortisone acetate] | 25 |
| C[C@]12C=CC(=O)C=C1CC[C@H]1[C@@H]3C[C@@H](O)[C@](O)(C(=O)CO)[C@@]3(C)C[C@H](O)[C@@]12F [Triamcinolone] | 4 |
